{
  "source": "patent US6407085B1",
  "about": "“Medicament containing betasitosterol and/or phytosterol/betasitosterol mixtures” (priority 1997, dated 2002)",
  "key": {"[1]": {"test": "oral tolerability of betasitosterol esters", "assay_type": "in vivo", "conditions": "taken orally"}, "[2]": {"test": "dissolving in oils, paraffins, stearates, Vaseline or glycerin with heat", "assay_type": "physicochemical", "conditions": "for appearance in glycerin after cooling: after heating in glycerin; for appearance in oil after cooling: after heating in oil", "experimental": "The solubility of phytosterol/betasitosterol mixtures and betasitosterol metabolites can be accelerated and improved with respect to yield if the effective ingredients are treated in oil, paraffins, stearates, or Vaseline with the application of heat at temperatures of around 70° C. to 160° C., advantageously at 120° C. to 140° C., advantageously over a period of 30 minutes to 3 hours.\nIf betasitosterol or sodium desoxycholate is heated in diverse natural and mineral oils, paraffins, commercially-available hypoallergenic stearate mixtures, or Vaseline (2 g substance in 100 ml) to 120° C., both substances dissolve fully within 90 minutes. Upon further heating to 150° C. (at 140° C., betasitosterol becomes liquid), betasitosterol dissolves up to around 15% in stearate mixtures, paraffins, and plant and mineral oils. […] In like manner, betasitosterol and sodium desoxycholate can be introduced into glycerin."}, "[3]": {"conditions": "cited from earlier work"}, "[4]": {"conditions": "in vivo; cited from earlier work"}, "[5]": {"conditions": "chloroform; cited from earlier work"}, "[6]": {"test": "solubility in oils, chloroform and water at room temperature"}, "psoriasis": {"tested_on": "psoriasis", "test": "salve applied to the skin in psoriasis", "assay_type": "in vivo", "experimental": "If phytosterol/betasitosterol mixtures, when they are dissolved in the above described form in oil, are stirred into a salve base alone or in a mixture with sodium desoxycholate in aqueous solution in a concentration of 0.5 to 2.0% and the salve base is applied to the skin, the itching of neurodermatitis usually is eased after only 2 to 5 minutes. Inflammation processes with redness and swelling are alleviated after 24 to 48 hours. Thus a histamine antagonistic as well as a cortisone-like effect is determined, but without the side effects of the hormone. In the case of psoriasis, the formation of scales is often reduced even in extreme cases only 24 hours after the first application, particularly with the use of the metabolite desoxycholic acid. Here again the use of such substances is completely unproblematic in contrast to a salve with a component of vitamin-D-like structure, which as a result of the resorption of the vitamin-D-like molecule can be applied only to a limited extent because of the danger of overdosing and thus the influencing of calcium metabolism."}},
  "data": [
    {"molecule": "CC[C@H](CC[C@@H](C)[C@H]1CC[C@H]2[C@@H]3CC=C4C[C@@H](OC(=O)[C@H](O)[C@@H](O)[C@H](O)[C@H](O)CO)CC[C@]4(C)[C@H]3CC[C@]12C)C(C)C", "note": "[betasitosterol gluconic acid ester]", "values": [
      {"measurement": "tolerability", "setting": "[1]", "result": "free of side effects and very well tolerated"}
    ]},
    {"molecule": "CC[C@H](CC[C@@H](C)[C@H]1CC[C@H]2[C@@H]3CC=C4C[C@@H](O)CC[C@]4(C)[C@H]3CC[C@]12C)C(C)C", "note": "[betasitosterol]", "values": [
      {"measurement": "appearance in glycerin after cooling", "setting": "[2]", "result": "slightly opalescent"},
      {"measurement": "appearance in oil after cooling", "setting": "[2]", "result": "slightly opalescent"},
      {"measurement": "dissolving in glycerin", "setting": "[2]; heated to 120° C.", "result": "dissolve completely clear"},
      {"measurement": "amount dissolved", "setting": "[2]; heating to 150° C., stearate mixtures, paraffins, plant and mineral oils", "result": "around 15%"},
      {"measurement": "resorption quotient", "setting": "[3]; healthy subjects", "result": "around 5%"},
      {"measurement": "blood count", "setting": "[3]; oral administration of up to 24 g per day", "result": 10, "unit": "mg"},
      {"measurement": "portion metabolized into cholic acid and chenodesoxycholic acid", "setting": "[4]", "result": "around 20%"},
      {"measurement": "solubility (D'ans-Lax)", "setting": "[5]", "result": "soluble in chloroform"},
      {"measurement": "solubility in oil on addition of sodium desoxycholate", "setting": "[6]", "result": "further improved"},
      {"measurement": "solubility in oil at room temperature", "setting": "[6]; linseed oil, safflower oil, neutral oil, standing longer than 24 h at room temperature", "result": "dissolves in sufficient quantity"}
    ]},
    {"molecule": "desoxycholic acid", "values": [
      {"measurement": "appearance in glycerin after cooling", "setting": "[2]", "result": "white pasty mass"},
      {"measurement": "appearance with safflower oil", "setting": "[2]; heated to 120° C.", "result": "cloudy-opalescent emulsion"},
      {"measurement": "time after first application until formation of scales is reduced", "setting": "psoriasis", "result": 24, "unit": "h"}
    ]},
    {"molecule": "sodium desoxycholate", "values": [
      {"measurement": "appearance in glycerin after cooling", "setting": "[2]", "result": "remains clear"},
      {"measurement": "appearance in oil after cooling", "setting": "[2]", "result": "remains clear"},
      {"measurement": "dissolving in glycerin", "setting": "[2]; heated to 120° C.", "result": "dissolve completely clear"},
      {"measurement": "water solubility", "setting": "[6]", "result": "relatively water soluble"}
    ]}
  ]
}
